# The supplement of paper PMC10307832
# Columns and labels:
# Test in all cases: relative viability (nuclei count vs DMSO), 5 days (fraction); higher = more cells survive
# Idelalisib + Foretinib = compound: CC[C@H](Nc1ncnc2[nH]cnc12)c1nc2cccc(F)c2c(=O)n1-c1ccccc1 [Idelalisib] + COc1cc2c(Oc3ccc(NC(=O)C4(C(=O)Nc5ccc(F)cc5)CC4)cc3F)ccnc2cc1OCCCN1CCOCC1 [Foretinib] (partner 0.25 µM)
# In short: (§1)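 Lung cancer cell lines in 1536-well plates were dosed by pin tool the day after seeding, either with one drug alone or with a fixed anchor-drug dose plus five library-drug doses (not always all listed) in √10 steps. After 5 days, cells were fixed and their nuclei stained in one step (final 0.05% Triton X-100, 1% formaldehyde, 1 ug/ml Hoechst), then counted on 4× images. Relative viability is the nuclei count in treated wells divided by that in vehicle wells. Values are medians of duplicate plates.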
# Pemetrexed + Olaparib = compound: Nc1nc2[nH]cc(CCc3ccc(C(=O)N[C@@H](CCC(=O)O)C(=O)O)cc3)c2c(=O)[nH]1 [Pemetrexed] + O=C(c1cc(Cc2n[nH]c(=O)c3ccccc23)ccc1F)N1CCN(C(=O)C2CC2)CC1 [Olaparib] (partner 8 µM)
# In short: as §1
# Pemetrexed + Tozasertib = compound: Nc1nc2[nH]cc(CCc3ccc(C(=O)N[C@@H](CCC(=O)O)C(=O)O)cc3)c2c(=O)[nH]1 [Pemetrexed] + Cc1cc(Nc2cc(N3CCN(C)CC3)nc(Sc3ccc(NC(=O)C4CC4)cc3)n2)n[nH]1 [Tozasertib] (partner 0.1 µM)
# In short: as §1
# Pemetrexed + Trametinib = compound: Nc1nc2[nH]cc(CCc3ccc(C(=O)N[C@@H](CCC(=O)O)C(=O)O)cc3)c2c(=O)[nH]1 [Pemetrexed] + CC(=O)Nc1cccc(-n2c(=O)n(C3CC3)c(=O)c3c(Nc4ccc(I)cc4F)n(C)c(=O)c(C)c32)c1 [Trametinib] (partner 0.02 µM)
# In short: as §1
Cell Line,relative viability (Idelalisib + Foretinib; first compound 0.04 µM),relative viability (Idelalisib + Foretinib; first compound 0.1265 µM),relative viability (Idelalisib + Foretinib; first compound 0.4 µM),relative viability (Idelalisib + Foretinib; first compound 1.265 µM),relative viability (Idelalisib + Foretinib; first compound 4 µM),relative viability (Pemetrexed + Olaparib; first compound 0.002 µM),relative viability (Pemetrexed + Olaparib; first compound 0.006325 µM),relative viability (Pemetrexed + Olaparib; first compound 0.02 µM),relative viability (Pemetrexed + Olaparib; first compound 0.06325 µM),relative viability (Pemetrexed + Olaparib; first compound 0.2 µM),relative viability (Pemetrexed + Tozasertib; first compound 0.002 µM),relative viability (Pemetrexed + Tozasertib; first compound 0.006325 µM),relative viability (Pemetrexed + Tozasertib; first compound 0.02 µM),relative viability (Pemetrexed + Tozasertib; first compound 0.06325 µM),relative viability (Pemetrexed + Tozasertib; first compound 0.2 µM),relative viability (Pemetrexed + Trametinib; first compound 0.002 µM),relative viability (Pemetrexed + Trametinib; first compound 0.006325 µM),relative viability (Pemetrexed + Trametinib; first compound 0.02 µM),relative viability (Pemetrexed + Trametinib; first compound 0.06325 µM),relative viability (Pemetrexed + Trametinib; first compound 0.2 µM)
NCI-H1651,0.761,0.799,0.702,0.735,0.561,0.175,0.191,0.205,0.193,0.184,0.684,0.645,0.703,0.658,0.644,0.857,0.783,0.821,0.827,0.786
H3255,0.641,0.569,0.853,0.939,0.921,0.563,0.602,0.586,0.573,0.519,0.653,0.707,0.754,0.709,0.555,0.517,0.581,0.673,0.55,0.515
Calu-6,0.895,0.909,0.844,0.894,0.767,–,0.525,0.646,0.524,0.578,–,–,–,–,–,–,–,–,–,–
SW 900,0.796,1.14,0.869,0.766,0.563,0.871,0.797,1.07,0.621,0.494,0.5,0.535,0.678,0.495,0.466,0.841,0.793,0.928,0.67,0.549
NCI-H650,1.05,1.05,0.948,1.05,1,0.382,0.403,–,0.302,0.378,0.666,0.691,0.826,0.734,0.74,0.894,0.887,–,1.03,1.02
NCI-H460,1.03,1.06,0.962,1,0.896,0.237,0.35,0.484,0.437,0.116,0.108,0.48,0.511,0.272,0.0837,–,0.0664,0.241,0.0967,0.0451
NCI-H2228,0.874,0.835,0.614,0.87,0.788,0.657,0.478,0.695,0.329,0.273,0.318,–,0.266,0.209,0.173,0.509,0.611,0.597,0.318,0.285
NCI-H2085,0.971,0.913,0.688,0.777,0.556,0.755,0.74,0.802,0.806,0.789,0.735,0.811,0.882,0.849,0.784,0.605,0.47,0.553,0.583,0.576
HCC-366,0.947,0.867,0.889,0.971,0.938,0.345,0.432,0.385,0.36,0.332,0.0686,0.0859,0.205,0.126,0.124,0.39,0.311,0.406,0.341,0.302
EPLC-272H,0.793,0.667,0.662,0.635,0.517,0.592,0.835,1.01,0.564,0.271,0.284,0.261,0.225,0.251,0.306,0.33,0.27,0.385,0.305,0.227
201T,1.09,1.07,0.741,1.11,0.993,0.791,0.85,0.841,0.878,0.839,0.833,0.97,0.971,0.976,0.871,0.745,0.713,0.706,0.735,0.724
NCI-H522,–,–,–,–,–,0.484,0.549,0.572,0.511,0.703,0.544,0.518,0.582,0.56,0.593,0.971,0.722,0.739,0.784,0.73
EBC-1,0.0986,0.0952,0.0971,0.107,0.0962,0.684,0.714,0.723,0.665,0.545,–,–,–,–,–,–,–,–,–,–
IA-LM,1.17,1.41,1.24,1.31,1.19,0.74,0.725,0.926,0.889,0.852,–,–,–,–,–,–,–,–,–,–
NCI-H1703,0.344,0.356,0.311,0.399,0.303,0.485,0.379,0.671,0.381,0.385,–,–,–,–,–,–,–,–,–,–
A549,1.18,1.03,0.917,1,1.01,0.29,0.292,0.379,0.338,0.343,–,–,–,–,–,–,–,–,–,–
HCC-44,–,–,–,–,–,0.97,0.952,0.987,0.964,0.909,0.903,0.945,1.15,0.853,0.372,0.946,1.05,1.14,1.09,1.04
NCI-H1623,0.849,0.8,0.754,0.706,0.846,–,–,–,–,–,0.409,0.357,0.425,0.433,0.434,–,–,–,–,–
NCI-H1563,0.969,0.941,0.873,0.877,0.788,–,–,–,–,–,–,–,–,–,–,–,–,–,–,–
NCI-H1792,–,–,–,–,–,0.44,0.405,0.397,0.497,0.46,–,–,–,–,–,0.374,0.406,0.533,0.393,0.41
ABC-1,1.09,1.06,0.853,0.963,0.977,0.839,0.867,0.985,0.875,0.865,0.163,0.172,0.172,0.191,0.167,–,–,–,–,–
